The values that follow come from patent US7807841B2, “Spiro-containing compounds and compositions as modulators of steroid hormone nuclear receptors” (IRM LLC, priority 2005, dated 2010).

Test [1] addresses T1, Mineralocorticoid Receptor (MR) (Homo sapiens, UniProt P08235).
T1 construct: expressed in transfected cells; host or cells: 293T cells (ATCC)
T1 sequence (P08235 672-984): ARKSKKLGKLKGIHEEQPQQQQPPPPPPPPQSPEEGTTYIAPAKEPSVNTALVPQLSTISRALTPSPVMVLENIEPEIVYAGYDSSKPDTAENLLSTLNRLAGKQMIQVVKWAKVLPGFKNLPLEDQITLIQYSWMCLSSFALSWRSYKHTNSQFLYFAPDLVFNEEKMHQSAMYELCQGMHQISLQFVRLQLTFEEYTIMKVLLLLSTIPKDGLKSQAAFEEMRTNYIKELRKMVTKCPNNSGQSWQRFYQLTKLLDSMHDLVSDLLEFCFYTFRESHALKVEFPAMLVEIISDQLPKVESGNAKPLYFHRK
In words: Functional assay of mineralocorticoid receptor antagonism (Gal4-MR mammalian two hybrid luciferase reporter, 293T cells). To be noted: antagonism of aldosterone (0.4 nM)-induced MR activity. It is filed as cell-based. Here is the method:
The MR antagonist activity of the compounds is determined in a mammalian two hybrid reporter system. The N-terminus of MR (MR-NT, sequence coding amino acid 1-597) is fused to the activation domain of the VP16 gene. The ligand binding domain of MR (MR-LBD, sequence encoding amino acid 672-984) is fused to the DNA binding domain of the yeast Gal4 gene. The MR gene is cloned from a human kidney cDNA library with PCR.
The assay is performed in 384 well plates. Briefly, 293T cells (ATCC) are transfected with expression vectors for Gal-4-MR-LBD and VP16-MR NT, and a luciferase reporter vector containing Gal4 binding sequence (pG5-Luc). Cells are plated in 384 well plates immediately after transfection (approximately 3×10^4 cells/well in 50 μl medium). The medium is supplemented with 3% charcoal-dextran treated fetal bovine serum (Hyclone). Twenty four hours after transfection, compounds prepared in DMSO are transferred to the cells. The cells are then stimulated with 0.4 nM final concentration of aldosterone (Acros) and incubated at 37° C. for another 24 hours before the luciferase activity is assayed with 20 μl of Bright-Glo (Promega) using a luminometer (CLIPR). The expression of luciferase is used as an indicator of aldosterone-induced MR trans-activation. Each compound is tested in duplicates with 12-concentration titration. IC50 values (defined as the concentration of test compound required to antagonize 50% of aldosterone-induced MR activity) are determined from the dose-response curve.

Test [2] has as its target T2, Progesterone Receptor (PR) (Homo sapiens, UniProt P06401).
T2 sequence (P06401 679-933 limits assumed): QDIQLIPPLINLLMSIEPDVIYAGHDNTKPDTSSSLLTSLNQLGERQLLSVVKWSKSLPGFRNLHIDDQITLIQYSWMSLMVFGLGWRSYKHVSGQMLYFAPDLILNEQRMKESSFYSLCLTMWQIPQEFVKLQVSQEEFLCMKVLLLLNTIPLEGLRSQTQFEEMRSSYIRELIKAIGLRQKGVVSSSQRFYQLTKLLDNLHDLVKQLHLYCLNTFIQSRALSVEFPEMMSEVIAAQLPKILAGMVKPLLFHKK
Nature of the test: Functional assay of progesterone receptor antagonism (progesterone-induced alkaline phosphatase activity in T-47D cells). The test is classed as cell-based. To be noted: antagonism of progesterone (3 nM)-induced PR activity, read-out: PR-T47D IC50. As to the method:
The PR antagonist activity of the compounds is determined by progesterone-induced alkaline phosphatase activity in the T-47D cell line (ATCC). In the T-47D breast cancer cells, progesterone specifically induces de novo synthesis of a membrane-associated alkaline phosphatase enzyme in a time and dose-dependent manner (Di Lorenzo et al., Cancer Research, 51: 4470-4475 (1991)). The alkaline phosphatase enzymatic activity can be measured with a chemiluminescent substrate, such as CSPD® (Applied Biosystems).
The assay is performed in 384 well plates. Briefly, T-47D cells are plated in 384 well plates at a density of approximately 2.5×10^4 cells/well in 50 μl medium supplemented with 10% fetal bovine serum. Twenty four hours later, the medium is aspirated. New medium that is free of phenol red and serum is added to the cells. Compounds prepared in DMSO are transferred to the cells. The cells are then stimulated with 3 nM final concentration of progesterone (Sigma) and incubated at 37° C. for another 24 hours before the alkaline phosphatase is assayed with 25 μl of CSPD® (Applied Biosystems) using a luminometer (CLIPR). The expression of alkaline phosphatase is used as an indicator of progesterone-induced PR trans-activation. Each compound is tested in duplicates with a 12-concentration titration. IC50 values (defined as the concentration of test compound required to antagonize 50% of progesterone-induced PR activity) are determined from the dose-response curve.

SMILES strings stand for the structures.

Consider `CC12CCCC(=O)N1CC1(O2)c2ccccc2C=Cc2ccccc21` (centres unmarked) [FRS-4], for which the IC50 (as a rule, the point on the concentration scale where inhibition reaches its midpoint) in test [1] was in the range of 0.1 to 1 µM; in test [2], 1 to 10 µM.
In the case of `O=C1CCC2(c3ccc(F)cc3)OC3(CN12)c1ccccc1C=Cc1ccccc13` (centres unmarked) [FRS-3], the figures for the 50% inhibitory concentration (IC50) in test [1] and in test [2] were 0.1 to 1 µM and above 10 µM, respectively.
As for `CCCC12CCC(=O)N1CC1(O2)c2ccccc2C=Cc2ccccc21` (centres unmarked) [FRS-9], the IC50 in test [1] is below 0.1 µM; in test [2], 1 to 10 µM.
Take `CC12CCCCC(=O)N1CC1(O2)c2ccccc2C=Cc2ccccc21` (centres unmarked) [FRS-6]: the results for the IC50 in test [1] and in test [2] were 0.1 to 1 µM and above 10 µM, respectively.
The like results for `O=C1CCCC2(C(F)(F)F)OC3(CN12)c1ccccc1C=Cc1ccccc13` (centres unmarked) [FRS-11] were, in that order, below 0.1 µM and above 10 µM.
As for `O=C1CCC2(C3CC3)OC3(CN12)c1ccccc1C=Cc1ccccc13` (centres unmarked) [FRS-10], the IC50 in test [1] was below 0.1 µM; in test [2], above 10 µM.
`CC1(C)OC2(CN1S(C)(=O)=O)c1ccccc1C=Cc1ccccc12` [SOXS-4]: the results for the IC50 in test [1] and in test [2] were below 0.1 µM and 0.1 to 1 µM, respectively.
As to `CC12CCC(=O)N1CC1(O2)c2ccccc2C=Cc2ccccc21` (centres unmarked) [FRS-1], the values for the half-inhibitory concentration (IC50) in test [1] and in test [2] were below 0.1 µM and above 10 µM, respectively.
`O=C1CCC2(c3cccs3)OC3(CN12)c1ccccc1C=Cc1ccccc13` (centres unmarked) [FRS-8]: the values for the IC50 in test [1] and in test [2] were below 0.1 µM and 1 to 10 µM, respectively.
On to `CC1(C)OC2(CN1C(=O)Nc1ccc(F)cc1F)c1ccccc1C=Cc1ccccc12` [SOXS-1], for which the IC50 in test [1] and in test [2] was 1 to 10 µM in each case.
With `CC12CCC(=O)N1CC1(O2)c2ccccc2CCc2ccccc21` (centres unmarked) [FRS-13], the figures for the IC50 in test [1] and in test [2] were below 0.1 µM and above 10 µM, respectively.
The like results for `COc1ccc(C23CCC(=O)N2CC2(O3)c3ccccc3C=Cc3ccccc32)cc1` (centres unmarked) [FRS-5] were, in that order, 0.1 to 1 µM and above 10 µM.
`CC12CCC(=O)N1CC1(O2)c2ccccc2C=Cc2ccccc21` (single isomer, unassigned) [FRS-1 (Chiral Synthesis)]: the results for the IC50 in test [1] and in test [2] were below 0.1 µM and above 10 µM, respectively.
Regarding `CC(=O)N1CC2(OC13CCCCC3)c1ccccc1C=Cc1ccccc12` [SOXS-6], the IC50 in test [1] and in test [2] was 0.1 to 1 µM throughout.
As for `CC(=O)N1CC2(OC1(C)C)c1ccccc1C=Cc1ccccc12` [SOXS-3], the values for the IC50 in test [1] and in test [2] were 0.1 to 1 µM and 1 to 10 µM, respectively.
On to `CC12CCC(=O)N1CC1(O2)c2ccccc2CCc2ccccc21` (single isomer, unassigned) [FRS-13 (Chiral Synthesis)], for which the IC50 in test [1] was below 0.1 µM; in test [2], above 10 µM.
On to `O=C1CCC2(c3ccccc3)OC3(CN12)c1ccccc1C=Cc1ccccc13` (centres unmarked) [FRS-2], for which the IC50 was 0.1 to 1 µM in test [1] and above 10 µM in test [2].
As for `Oc1ccc(C2=NCC3(O2)c2ccccc2C=Cc2ccccc23)cc1` [OXS-1], the values for the IC50 in test [1] and in test [2] were 0.1 to 1 µM and above 10 µM, respectively.
As to `CC12CCCC(=O)N1CC1(O2)c2ccccc2CCc2ccccc21` (centres unmarked) [FRS-14], the figures for the IC50 in test [1] and in test [2] were 0.1 to 1 µM and 1 to 10 µM, respectively.
